Reference: PMC4466525, “Design, Synthesis and Structure-Activity Relationship Studies of Novel Survivin Inhibitors with Potent Anti-Proliferative Properties” (PLoS ONE, 2015)

Experiments:
survivin [1] = target: T1, survivin (Homo sapiens, UniProt O15392); test: DARTS assay, survivin; assay type: binding; conditions: 20 μM, pronase-digested A375 or M14 cell lysates
T1 construct: endogenous in cells; host or cells: A375 cells
Description: Drug affinity responsive target stability (DARTS) assay was performed to identify the protein targets of UC-112 analogs in A375 or M14 cell lysates following the protocols described in the literature. Briefly, A375 or M14 lysates were prepared in non-denaturing M-PER lysis buffer (Thermo Fisher Scientific, Waltham, MA) with protease and phosphatase inhibitors. Then TNC (Tris, NaCl, CaCl2) buffer was added into cell lysates before the total protein concentration of lysate being determined by BCA protein assay kit (Thermo Fisher Scientific, Waltham, MA). The lysates were split into two groups: one group was added with compound of interest solution, the other group was added with same amount of vehicle (DMSO). The samples were mixed thoroughly and incubated at room temperature for 1 h. Then 10 mg/mL pronase stock solution was added into both compound treated or vehicle control groups to achieve the final dilution of 1:100, 1:300, 1:1000 and 1:3000. One aliquot of each group was kept as un-digested control. The proteolysis was performed at room temperature for 30 min before ice cold protease inhibitor stock being added into the mixture. Then SDS loading buffer was added into all the samples and heated to 70°C for 10 min. Finally, the results were analyzed by SDS-PAGE and immunoblotting.

[2] = test system: NCI/ADR-RES (ovarian cancer); test: NCI-60 five dose screening, NCI/ADR-RES; assay type: cell-based; conditions: Homo sapiens, NCI-60 five dose
Description: (§1) Four compounds including the parental compound UC-112 were submitted to National Cancer Institute for its NCI-60 cell line screening, initially tested at one concentration (10 μM), and subsequently selected for full five concentration testing following the standard protocols disclosed by NCI [34]. In brief, cells were plated into 96 well micro-titer plates 24 h prior to the treatment of compound solution for 48 h, then the cell viability was read out through absorbance of sulforhodamine B (SRB) staining.

CYP2B6 = target: T2, CYP2B6 (Homo sapiens, UniProt P20813); test: Cytochrome P450 inhibition, CYP2B6; assay type: in vitro ADME; conditions: probe bupropion, substrate bupropion, human liver microsomes 0.1 mg/mL, read-out: % inhibition of control values, CYP2B6
T2 construct: tissue Eurofins Panlabs Inc. (contract research service) Study Number 100017964; host or cells: human liver microsomes
Description: (§2) All these experiments were performed by a contract research service company, Eurofins Panlabs Inc. (Study Number 100017964). Aqueous solubility (μM) was determined using the shake-flask method by comparing the peak area of the principal peak in a calibration standard (200 μM) containing organic solvent (methanol/water, 60/40, v/v) with the peak area of the corresponding peak in a buffer sample. Metabolic stability study was carried out by incubating compound 4g with human liver microsomes. Metabolic stability which is expressed as percent of the parent compound remaining, was calculated by comparing the peak area of the compound at the time point relative to that at time-0. The half-life (T1/2) was estimated from the slope of the initial linear range of the logarithmic curve of compound remaining (%) vs. time. In the cytochrome P450 inhibition study, human liver microsomes (0.1 mg/mL) were incubated with different substrates and compound 4g for 10 minutes. After the incubation, peak areas corresponding to the metabolite of each substrate were recorded. The percent of control activity was then calculated by comparing the peak area obtained in the presence of compound 4g to that obtained in the absence of compound 4g. Subsequently, the percent inhibition was calculated by subtracting the percent control activity from 100.

CYP2D6 = target: T3, CYP2D6 (Homo sapiens, UniProt P10635); test: Cytochrome P450 inhibition, CYP2D6; assay type: in vitro ADME; conditions: probe dextromethorphan, substrate dextromethorphan, human liver microsomes 0.1 mg/mL, read-out: % inhibition of control values, CYP2D6
T3 construct: tissue Eurofins Panlabs Inc. (contract research service) Study Number 100017964; host or cells: human liver microsomes
Description: as §2

HCT-15 (colon cancer) = test: NCI-60 five dose screening, HCT-15; assay type: cell-based; conditions: Homo sapiens, colon cancer HCT-15
Description: as §1

survivin [3] = target: T1, survivin; test: Western blotting of survivin level, PC-3 cells; assay type: cell-based; conditions: 24 h
PC-3 = test: Cell viability (MTS) anti-proliferative assay, PC-3; assay type: cell-based; conditions: PC-3 human prostate cancer, 48 h treatment, n = 4, read-out: IC50 values ± SEM, PC-3
Description: (§3) The anti-proliferative effect of UC-112 and its analogs were tested in human melanoma (A375, M14 and M14/LCC6MDR1) and human prostate cancer (PC-3) cell lines. All the cell lines were purchased from ATCC (American Type Culture Collection, Manassas, VA). The cancer cells were cultured using the supplemented cell culture medium as described before at 37°C in a humidified atmosphere containing 5% CO2. 5000 cells in logarithm growing phase were seeded overnight into each well of a 96-well plate. Then the cells were continuously incubated with sequential diluted compound solution (10 nM to 100 μM, 100 μl per well) in cell culture medium.

NCI-60 cell lines = test: NCI-60 cell line screening (SRB), whole panel; assay type: cell-based, human
Description: as §1

M14 = test: Cell viability (MTS) anti-proliferative assay, M14; assay type: cell-based; conditions: M14 human melanoma, 48 h treatment, n = 4, read-out: IC50 values ± SEM, M14
Description: as §3

CYP1A = target: T4, CYP1A (Homo sapiens, UniProt P05177); test: Cytochrome P450 inhibition, CYP1A; assay type: in vitro ADME; conditions: probe phenacetin, substrate phenacetin, human liver microsomes 0.1 mg/mL, read-out: % inhibition of control values, CYP1A
T4 construct: tissue Eurofins Panlabs Inc. (contract research service) Study Number 100017964; host or cells: human liver microsomes
Description: as §2

[4] = test system: renal cancer cell line UO-31; test: NCI-60 five dose screening, UO-31; assay type: cell-based; conditions: Homo sapiens, renal cancer UO-31
Description: as §1

[5] = Metabolic stability in human liver microsomes; assay type: in vitro ADME
Description: as §2

CYP2C8 = target: T5, CYP2C8 (Homo sapiens, UniProt P10632); test: Cytochrome P450 inhibition, CYP2C8; assay type: in vitro ADME; conditions: probe paclitaxel, substrate paclitaxel, human liver microsomes 0.1 mg/mL, read-out: % inhibition of control values, CYP2C8
T5 construct: tissue Eurofins Panlabs Inc. (contract research service) Study Number 100017964; host or cells: human liver microsomes
Description: as §2

A375 = test: Cell viability (MTS) anti-proliferative assay, A375; assay type: cell-based; conditions: A-375, A375 human melanoma, 48 h treatment, n = 4, read-out: IC50 values ± SEM, A375
Description: as §3

CYP2C19 = target: T6, CYP2C19 (Homo sapiens, UniProt P33261); test: Cytochrome P450 inhibition, CYP2C19; assay type: in vitro ADME; conditions: probe omeprazole, substrate omeprazole, human liver microsomes 0.1 mg/mL, read-out: % inhibition of control values, CYP2C19
T6 construct: tissue Eurofins Panlabs Inc. (contract research service) Study Number 100017964; host or cells: human liver microsomes
Description: as §2

T1 sequence (O15392 whole entry): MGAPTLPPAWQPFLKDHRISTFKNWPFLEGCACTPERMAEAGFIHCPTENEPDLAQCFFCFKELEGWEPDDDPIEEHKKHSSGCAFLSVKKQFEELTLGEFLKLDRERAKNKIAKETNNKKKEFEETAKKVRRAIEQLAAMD
T5 sequence (P10632 whole entry): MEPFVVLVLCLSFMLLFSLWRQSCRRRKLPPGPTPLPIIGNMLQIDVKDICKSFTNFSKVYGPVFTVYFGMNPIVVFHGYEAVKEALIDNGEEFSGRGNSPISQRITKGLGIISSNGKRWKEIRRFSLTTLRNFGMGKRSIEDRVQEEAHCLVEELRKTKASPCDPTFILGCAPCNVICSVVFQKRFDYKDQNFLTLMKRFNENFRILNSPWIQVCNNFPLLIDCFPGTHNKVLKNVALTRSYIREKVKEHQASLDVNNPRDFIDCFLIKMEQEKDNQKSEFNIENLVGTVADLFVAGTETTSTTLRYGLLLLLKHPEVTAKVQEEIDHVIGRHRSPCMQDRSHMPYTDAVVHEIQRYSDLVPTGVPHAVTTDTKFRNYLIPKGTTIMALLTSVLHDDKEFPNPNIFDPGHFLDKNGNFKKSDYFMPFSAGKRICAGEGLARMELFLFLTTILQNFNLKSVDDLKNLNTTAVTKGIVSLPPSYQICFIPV
T2 sequence (P20813 whole entry): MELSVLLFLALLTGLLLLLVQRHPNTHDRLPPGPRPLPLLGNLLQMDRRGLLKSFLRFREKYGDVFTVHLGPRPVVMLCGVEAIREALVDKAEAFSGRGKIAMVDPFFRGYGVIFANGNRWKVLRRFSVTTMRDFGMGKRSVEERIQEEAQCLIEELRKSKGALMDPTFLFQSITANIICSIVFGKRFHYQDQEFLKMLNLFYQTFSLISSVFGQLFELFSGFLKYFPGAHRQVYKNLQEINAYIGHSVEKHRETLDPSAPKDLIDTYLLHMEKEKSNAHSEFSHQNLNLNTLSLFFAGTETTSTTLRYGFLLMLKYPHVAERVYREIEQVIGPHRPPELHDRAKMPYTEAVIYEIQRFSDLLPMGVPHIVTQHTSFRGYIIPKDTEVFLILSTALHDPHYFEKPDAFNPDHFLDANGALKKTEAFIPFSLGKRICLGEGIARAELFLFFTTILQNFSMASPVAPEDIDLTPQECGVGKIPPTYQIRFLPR
T3 sequence (P10635 whole entry): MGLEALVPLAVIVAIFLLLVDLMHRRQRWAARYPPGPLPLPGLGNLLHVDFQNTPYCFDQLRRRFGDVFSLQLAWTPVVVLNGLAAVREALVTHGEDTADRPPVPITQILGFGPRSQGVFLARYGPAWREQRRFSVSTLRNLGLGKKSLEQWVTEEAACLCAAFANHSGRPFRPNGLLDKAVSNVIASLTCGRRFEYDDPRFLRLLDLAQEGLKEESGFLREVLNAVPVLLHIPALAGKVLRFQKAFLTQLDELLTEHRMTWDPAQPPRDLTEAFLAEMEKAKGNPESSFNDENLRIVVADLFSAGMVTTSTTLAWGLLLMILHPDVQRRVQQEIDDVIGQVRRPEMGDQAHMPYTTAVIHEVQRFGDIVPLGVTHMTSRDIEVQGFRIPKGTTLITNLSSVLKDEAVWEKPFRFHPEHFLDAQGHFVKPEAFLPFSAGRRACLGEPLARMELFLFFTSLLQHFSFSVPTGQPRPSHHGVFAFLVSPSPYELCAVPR
T4 sequence (P05177 2-516 limits assumed): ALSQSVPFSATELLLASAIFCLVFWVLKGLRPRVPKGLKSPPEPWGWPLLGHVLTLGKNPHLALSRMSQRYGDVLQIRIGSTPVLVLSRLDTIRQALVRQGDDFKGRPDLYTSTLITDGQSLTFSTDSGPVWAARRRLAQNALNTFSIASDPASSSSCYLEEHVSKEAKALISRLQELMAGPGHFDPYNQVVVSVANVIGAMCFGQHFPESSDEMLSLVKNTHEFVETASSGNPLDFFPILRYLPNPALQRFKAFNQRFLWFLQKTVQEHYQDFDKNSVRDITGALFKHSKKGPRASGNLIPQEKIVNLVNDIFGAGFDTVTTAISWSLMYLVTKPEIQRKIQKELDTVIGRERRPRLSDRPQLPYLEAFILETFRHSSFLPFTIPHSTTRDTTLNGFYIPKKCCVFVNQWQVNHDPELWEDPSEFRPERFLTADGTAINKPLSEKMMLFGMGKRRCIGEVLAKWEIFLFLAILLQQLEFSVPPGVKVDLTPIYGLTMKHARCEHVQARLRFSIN
T6 sequence (P33261 whole entry): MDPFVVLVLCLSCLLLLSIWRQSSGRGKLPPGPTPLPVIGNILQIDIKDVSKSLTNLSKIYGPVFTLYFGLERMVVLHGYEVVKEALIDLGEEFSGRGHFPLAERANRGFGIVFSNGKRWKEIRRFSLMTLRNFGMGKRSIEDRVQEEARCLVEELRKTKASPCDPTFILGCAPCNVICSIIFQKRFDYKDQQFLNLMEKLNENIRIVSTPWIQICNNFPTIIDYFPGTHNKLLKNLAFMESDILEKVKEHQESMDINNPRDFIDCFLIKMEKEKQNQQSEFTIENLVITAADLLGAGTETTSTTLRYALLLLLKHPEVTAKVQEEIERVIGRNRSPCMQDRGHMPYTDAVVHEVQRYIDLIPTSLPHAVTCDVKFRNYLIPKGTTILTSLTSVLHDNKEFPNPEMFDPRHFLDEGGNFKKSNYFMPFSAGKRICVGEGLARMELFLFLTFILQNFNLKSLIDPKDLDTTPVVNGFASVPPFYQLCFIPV

With `CC(C)c1ccc(COCc2cc(CN3CCCC3)c(O)c3ncccc23)cc1` [4g, 5-(((4-isopropylbenzyl)oxy)methyl)-7-(pyrrolidin-1-ylmethyl)quinolin-8-ol] the “Protease susceptibility of survivin (DARTS)” value (survivin [1]) was “significantly reduced”, the GI50 [2] was 50.1 nM and the inhibition at 10 min (CYP2B6) was 21%. For the same molecule, the inhibition at 10 min (CYP2D6) was 87%, the GI50 (HCT-15 (colon cancer)) was 46.8 nM and the “Reduction of survivin level, PC-3” value (survivin [3]; 300 nM, lane density by ImageJ) was “over 50%”. For the same molecule, the “Effect on survivin level, PC-3” value (survivin [3]; gradient increasing dose) was “dose-dependently suppressed survivin level”, the IC50 (PC-3) was 700 ± 100 nM and the GI50 (NCI-60 cell lines; Homo sapiens, five dose testing, 48 h, SRB, read-out: Average GI50 over all cancer cell lines in the NCI-60 panel) was 500 nM. For the same molecule, the “Activity in NCI-60 one-concentration screening” value (NCI-60 cell lines; one concentration, 10 μM) was “good activity”, the IC50 (M14) was 800 ± 200 nM and the inhibition at 10 min (CYP1A) was 18%. The GI50 [4] was 52.5 nM, the microsomal CLint at 100 nM ([5]; human) was 137 µL/min/mg and the half-life at 100 nM ([5]; test concentration 100 nM) was 51 min. The inhibition at 10 min (CYP2C8) was 21%, the IC50 (A375) was 900 ± 100 nM and the inhibition at 10 min (CYP2C19) was 45%.
